Where “and” joins values, the source holds several entries; their conditions need not be identical. Identical values can stand only once.
Key:
[1] = tested on: subjects with diabetic or idiopathic gastroparesis; experiment: DIGEST I: weekly GRS total score; details: ITT
Source text: Gastroparesis Rating Score is a patient reported outcome that measures 9 symptoms: (1) nausea, (2) bloating, (3) postprandial fullness, (4) early satiety, (5) vomiting, (6) abdominal pain, (7) epigastric burning, (8) gastric reflux with or without burning, and (9) bowel movements, using up to 27 questions assessing the severity of the symptom, the daily frequency of the symptom, the length of time on a daily basis of the symptom, and whether the symptom continues over a 24-hour period.
(§1) The total duration of study participation for each completed subject was approximately 19 weeks including: • Screening period: up to 5 weeks, including one week baseline period; • Treatment period: 12 weeks; and • Follow-up: 2 weeks.
During the treatment period, subjects were instructed to take 1 capsule of study drug once daily approximately 30 minutes prior to eating at approximately the same time each morning and to record the time of drug ingestion in the electronic diary. Subjects also completed the GCS1-24H and GRS on a daily basis using an electronic diary. […] Subjects returned to the study center for safety and efficacy assessments as detailed in the Schedule of Study Procedures.
A daily proprietary patient reported outcome (PRO) tool was used to assess GP symptoms, the Gastroparesis Rating Scale (GRS), developed according to the current FDA PRO guidance. The GRS covers the following cardinal symptom domains: (1) nausea, (2) vomiting, (3) postprandial fullness/early satiety, (4) bloating, (5) upper abdominal pain, (6) gastric reflux/burning, and (7) bowel movements. The GRS symptom domains may be also categorized or grouped into Factor 1 (fullness, early satiety, bloating, upper abdominal pain, and epigastric burning) and Factor 2 (nausea and vomiting).
The primary endpoint evaluation time point was Week 4 with sensitivity analyses conducted at Weeks 8 and 12.
LS Mean Differences in each subgroup are calculated based on repeated measures mixed effect model with change from baseline in weekly GRS total score as dependent variable, treatment, gastroparesis type (diabetic vs. idiopathic), GE test time (historical vs. prospective), baseline GRS total score, time, subgroup variable, interaction effect of treatment by time, baseline GRS total score by time, treatment by subgroup variable, time by subgroup variable and treatment by time by subgroup variable as fixed effect, a random effect of subject within site, using an unstructured covariance structure.

[2] = tested on: subjects with diabetic or idiopathic gastroparesis; experiment: DIGEST I Phase 2b: weekly GCSI-24H total score;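 further: Patient-reported daily electronic-diary symptom index rating nausea/vomiting, postprandial fullness/early satiety and bloating, averaged weekly, once-daily oral capsule taken before breakfast, baseline from 1-week pretreatment period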
Source text: as §1
To qualify for entry into the Baseline Period of the study, subjects had to have: a) a composite score of 2 and <5 points on nausea, bloating, feeling excessively full after meals, and not able to finish a normal-sized meal on the GCS1-2W; b) a score of ≥3 points for at least 2 of these 4 symptoms on the GCS1-2W at Screening; and c) delayed gastric emptying as determined by either a 4-hour ^99mTc GES or GEBT. If a subject failed either the GES or GEBT at Screening, then a second gastric emptying test could have been performed during the Screening Period using the GEBT in order to qualify for the study. Subjects who were eligible for further study participation completed the 2 daily PRO measures (the Gastroparesis Rating Scale [GRS] and a daily version of the GCSI, designated the Gastroparesis Cardinal Symptoms Index—24-Hour Recall [GCS1-24H] in this study) over a 7-day period to establish baselines.
After the 1-week Baseline Period, subjects were required to have a 7-day mean score of ≥2.5 and <5 points on the GCS.1-24H at Day 1 to be eligible for entry. Eligible subjects completed the Patient Assessment of Upper Gastrointestinal Quality of Life (PAG1-QOL) questionnaire to establish baseline QOL metrics at Day 1.
During the treatment period, subjects were instructed to take 1 capsule of study drug once daily approximately 30 minutes prior to eating at approximately the same time each morning and to record the time of drug ingestion in the electronic diary. Subjects also completed the GCS1-24H and GRS on a daily basis using an electronic diary. At specified times, subjects also completed the PAG1-QOL questionnaire to assess QOL metrics and the Treatment Satisfaction Questionnaire. In addition, subjects and clinicians completed the Overall Treatment Effect (OTE) and Overall Gastroparesis Severity (OGS) instruments to serve as anchor instruments for the psychometric evaluation of the GRS measure. Subjects returned to the study center for safety and efficacy assessments as detailed in the Schedule of Study Procedures.
A total score was used to assess the GCSI PRO, which comprised a mean of 3 means symptoms domain score.
Each individual domain was evaluated. […] LS Mean Differences in each subgroup are calculated based on repeated measures mixed effect model with change from baseline in weekly GCSI-24H total score as dependent variable, treatment, gastroparesis type (diabetic vs. idiopathic), GE test time (historical vs. prospective), baseline GCSI 24H total score, time, subgroup variable, interaction effect of treatment by time, baseline GCSI 24H total score by time, treatment by subgroup variable, time by subgroup variable and treatment by time by subgroup variable as fixed effect, a random effect of subject within site, using an unstructured covariance structure. For GCSI baseline subgroup analysis, baseline 24H total score is replaced with GCSI baseline categorical variable.

[3] = 5 mg/day, Week 4, diabetic patients
[4] = 5 mg/day, Week 4, idiopathic patients
[5] = 5 mg/day, Week 8, diabetic patients
[6] = 5 mg/day, Week 8, idiopathic patients
[7] = 5 mg/day, Week 12, diabetic patients
[8] = 5 mg/day, Week 12, idiopathic patients
[9] = 5 mg/day, Week 14 (off therapy), diabetic patients
[10] = 5 mg/day, Week 14 (off therapy), idiopathic patients
[11] = 15 mg/day, Week 4, diabetic patients
[12] = 15 mg/day, Week 4, idiopathic patients
[13] = 15 mg/day, Week 8, diabetic patients
[14] = 15 mg/day, Week 8, idiopathic patients
[15] = 15 mg/day, Week 12, diabetic patients
[16] = 15 mg/day, Week 12, idiopathic patients
[17] = 15 mg/day, Week 14 (off therapy), diabetic patients
[18] = 15 mg/day, Week 14 (off therapy), idiopathic patients
[19] = 30 mg/day, Week 4, diabetic patients
[20] = 30 mg/day, Week 4, idiopathic patients
[21] = 30 mg/day, Week 8, diabetic patients
[22] = 30 mg/day, Week 12, diabetic patients
[23] = 30 mg/day, Week 12, idiopathic patients
[24] = 30 mg/day, Week 14 (off therapy), diabetic patients
[25] = 30 mg/day, Week 14 (off therapy), idiopathic patients

Substance: 1-isopropyl-2-oxo-1,2-dihydroquinoline-3-carboxylic acid {(1S,3R,5R)-8-[(R)-2-hydroxy-3-(methanesulfonyl-methyl-amino)propyl]-8-azabicyclo[3.2.1]oct-3-yl}amide [Velusetrag]
- LS Mean Difference vs placebo, weekly GRS total score ([1]; 5 mg/day, Week 4): −0.4 points and −0.4 (0.16) points
- LS Mean change from baseline, weekly GRS total score ([1]; 5 mg/day, Week 4): −1.3 (0.11) points
- LS Mean Difference vs placebo, weekly GRS total score ([1]; 5 mg/day, Week 8): −0.3 (0.18) points
- LS Mean change from baseline, weekly GRS total score ([1]; 5 mg/day, Week 8): −1.4 (0.13) points
- LS Mean Difference vs placebo, weekly GRS total score ([1]; 5 mg/day, Week 12): −0.4 (0.18) points
- LS Mean change from baseline, weekly GRS total score ([1]; 5 mg/day, Week 12): −1.5 (0.13) points
- LS Mean Difference vs placebo, weekly GRS total score ([1]; 15 mg/day, Week 4): −0.2 (0.17) points
- LS Mean change from baseline, weekly GRS total score ([1]; 15 mg/day, Week 4): −1.1 (0.12) points
- LS Mean Difference vs placebo, weekly GRS total score ([1]; 15 mg/day, Week 8): −0.1 (0.19) points
- LS Mean change from baseline, weekly GRS total score ([1]; 15 mg/day, Week 8): −1.2 (0.14) points
- LS Mean Difference vs placebo, weekly GRS total score ([1]; 15 mg/day, Week 12): −0.2 (0.19) points
- LS Mean change from baseline, weekly GRS total score ([1]; 15 mg/day, Week 12): −1.3 (0.14) points
- LS Mean Difference vs placebo, weekly GRS total score ([1]; 30 mg/day, Week 4): 0.0 (0.17) points
- LS Mean change from baseline, weekly GRS total score ([1]; 30 mg/day, Week 4): −0.8 (0.12) points
- LS Mean Difference vs placebo, weekly GRS total score ([1]; 30 mg/day, Week 8): −0.1 (0.19) points
- LS Mean change from baseline, weekly GRS total score ([1]; 30 mg/day, Week 8): −1.1 (0.13) points
- LS Mean Difference vs placebo, weekly GRS total score ([1]; 30 mg/day, Week 12): −0.1 (0.19) points
- LS Mean change from baseline, weekly GRS total score ([1]; 30 mg/day, Week 12): −1.3 (0.13) points
- LS Mean Difference vs placebo, weekly GCSI-24H total score ([2]; 5 mg/day, Week 4, ITT): −0.4 points
- LS Mean change from baseline, weekly GCSI-24H total score ([2]; 5 mg/day, Week 4, ITT): −1.5 (0.13) points
- LS Mean Difference vs placebo, weekly GCSI-24H total score ([2]; 5 mg/day, Week 4, ITT, listed as VEL): −0.4 (0.18) points
- LS Mean Difference vs placebo, weekly GCSI-24H total score [2, 3]: −0.2 (0.25) points
- LS Mean change from baseline, weekly GCSI-24H total score [2, 3]: −1.5 (0.18) points
- LS Mean Difference vs placebo, weekly GCSI-24H total score [2, 4]: −0.6 (0.26) points
- LS Mean change from baseline, weekly GCSI-24H total score [2, 4]: −1.5 (0.18) points
- LS Mean Difference vs placebo, weekly GCSI-24H total score ([2]; 5 mg/day, Week 8, ITT): −0.3 (0.20) points
- LS Mean change from baseline, weekly GCSI-24H total score ([2]; 5 mg/day, Week 8, ITT): −1.6 (0.14) points
- LS Mean Difference vs placebo, weekly GCSI-24H total score [2, 5]: −0.1 (0.27) points
- LS Mean change from baseline, weekly GCSI-24H total score [2, 5]: −1.6 (0.19) points
- LS Mean Difference vs placebo, weekly GCSI-24H total score [2, 6]: −0.6 (0.28) points
- LS Mean change from baseline, weekly GCSI-24H total score [2, 6]: −1.6 (0.20) points
- LS Mean Difference vs placebo, weekly GCSI-24H total score ([2]; 5 mg/day, Week 12, ITT): −0.3 points
- LS Mean change from baseline, weekly GCSI-24H total score ([2]; 5 mg/day, Week 12, ITT): −1.7 (0.15) points
- LS Mean Difference vs placebo, weekly GCSI-24H total score ([2]; 5 mg/day, Week 12, ITT, listed as VEL): −0.3 (0.21) points
- LS Mean Difference vs placebo, weekly GCSI-24H total score [2, 7]: −0.0 (0.29) points
- LS Mean change from baseline, weekly GCSI-24H total score [2, 7]: −1.7 (0.21) points
- LS Mean Difference vs placebo, weekly GCSI-24H total score [2, 8]: −0.6 (0.30) points
- LS Mean change from baseline, weekly GCSI-24H total score [2, 8]: −1.7 (0.21) points
- LS Mean Difference vs placebo, weekly GCSI-24H total score [2, 9]: −0.2 (0.29) points
- LS Mean change from baseline, weekly GCSI-24H total score [2, 9]: −1.7 (0.20) points
- LS Mean Difference vs placebo, weekly GCSI-24H total score [2, 10]: −0.4 (0.30) points
- LS Mean change from baseline, weekly GCSI-24H total score [2, 10]: −1.4 (0.21) points
- LS Mean Difference vs placebo, weekly GCSI-24H total score ([2]; 15 mg/day, Week 4, ITT): −0.1 (0.19) points
- LS Mean change from baseline, weekly GCSI-24H total score ([2]; 15 mg/day, Week 4, ITT): −1.2 (0.14) points
- LS Mean Difference vs placebo, weekly GCSI-24H total score [2, 11]: 0.1 points
- LS Mean change from baseline, weekly GCSI-24H total score [2, 11]: −1.2 points
- LS Mean Difference vs placebo, weekly GCSI-24H total score [2, 12]: −0.3 (0.28) points
- LS Mean change from baseline, weekly GCSI-24H total score [2, 12]: −1.2 (0.20) points
- LS Mean Difference vs placebo, weekly GCSI-24H total score ([2]; 15 mg/day, Week 8, ITT): −0.1 (0.21) points
- LS Mean change from baseline, weekly GCSI-24H total score ([2]; 15 mg/day, Week 8, ITT): −1.3 (0.15) points
- LS Mean Difference vs placebo, weekly GCSI-24H total score [2, 13]: 0.3 points
- LS Mean change from baseline, weekly GCSI-24H total score [2, 13]: −1.2 points
- LS Mean Difference vs placebo, weekly GCSI-24H total score [2, 14]: −0.4 (0.30) points
- LS Mean change from baseline, weekly GCSI-24H total score [2, 14]: −1.5 (0.22) points
- LS Mean Difference vs placebo, weekly GCSI-24H total score ([2]; 15 mg/day, Week 12, ITT): −0.0 (0.22) points
- LS Mean change from baseline, weekly GCSI-24H total score ([2]; 15 mg/day, Week 12, ITT): −1.4 (0.16) points
- LS Mean Difference vs placebo, weekly GCSI-24H total score [2, 15]: 0.4 points
- LS Mean change from baseline, weekly GCSI-24H total score [2, 15]: −1.3 points
- LS Mean Difference vs placebo, weekly GCSI-24H total score [2, 16]: −0.4 (0.32) points
- LS Mean change from baseline, weekly GCSI-24H total score [2, 16]: −1.5 (0.24) points
- LS Mean Difference vs placebo, weekly GCSI-24H total score [2, 17]: 0.4 points
- LS Mean change from baseline, weekly GCSI-24H total score [2, 17]: −1.1 points
- LS Mean Difference vs placebo, weekly GCSI-24H total score [2, 18]: −0.1 (0.31) points
- LS Mean change from baseline, weekly GCSI-24H total score [2, 18]: −1.2 (0.23) points
- LS Mean Difference vs placebo, weekly GCSI-24H total score ([2]; 30 mg/day, Week 4, ITT): 0.1 (0.19) points
- LS Mean change from baseline, weekly GCSI-24H total score ([2]; 30 mg/day, Week 4, ITT): −1.0 (0.13) points
- LS Mean Difference vs placebo, weekly GCSI-24H total score [2, 19]: 0.2 points
- LS Mean change from baseline, weekly GCSI-24H total score [2, 19]: −1.0 points
- LS Mean Difference vs placebo, weekly GCSI-24H total score [2, 20]: −0.1 (0.26) points
- LS Mean change from baseline, weekly GCSI-24H total score [2, 20]: −1.0 (0.18) points
- LS Mean Difference vs placebo, weekly GCSI-24H total score ([2]; 30 mg/day, Week 8, ITT): −0.0 (0.20) points
- LS Mean change from baseline, weekly GCSI-24H total score ([2]; 30 mg/day, Week 8, ITT): −1.3 (0.14) points
- LS Mean Difference vs placebo, weekly GCSI-24H total score [2, 21]: 0.2 points
- LS Mean change from baseline, weekly GCSI-24H total score [2, 21]: −1.3 points
- LS Mean Difference vs placebo, weekly GCSI-24H total score ([2]; 30 mg/day, Week 8, idiopathic patients): −0.2 (0.29) points
- LS Mean Difference vs placebo, weekly GCSI-24H total score ([2]; 30 mg/day, Week 12, ITT): −0.1 (0.22) points
- LS Mean change from baseline, weekly GCSI-24H total score ([2]; 30 mg/day, Week 12, ITT): −1.5 (0.15) points
- LS Mean Difference vs placebo, weekly GCSI-24H total score [2, 22]: 0.1 points
- LS Mean change from baseline, weekly GCSI-24H total score [2, 22]: −1.6 points
- LS Mean Difference vs placebo, weekly GCSI-24H total score [2, 23]: −0.2 (0.30) points
- LS Mean change from baseline, weekly GCSI-24H total score [2, 23]: −1.3 (0.21) points
- LS Mean Difference vs placebo, weekly GCSI-24H total score [2, 24]: −0.1 points
- LS Mean change from baseline, weekly GCSI-24H total score [2, 24]: −1.7 points
- LS Mean Difference vs placebo, weekly GCSI-24H total score [2, 25]: 0.0 (0.29) points
- LS Mean change from baseline, weekly GCSI-24H total score [2, 25]: −1.0 (0.20) points

Source: patent publication US11642339B2 (THERAVANCE BIOPHARMA R&D IP, LLC, priority 2017, dated 2023)
